In the NIST ThermoML archive (doi:10.1016/j.jct.2012.08.030):
± gives the expanded uncertainty stated by the source.

Tests used:
[1] = refractive index (Na D-line) (dimensionless); xn = mol fraction of the nth substance listed; conditions: 101.3 kPa, Liquid, Standard Abbe refractometry
[2] = xn = mol fraction of the nth substance listed; conditions: 101.3 kPa, Liquid; for speed of sound: Sing-around technique in a fixed-path interferometer; for mass density: Vibrating tube method

CCCCn1cc[n+](C)c1.COS(=O)(=O)[O-] [1-butyl-3-methylimidazolium methyl sulfate] + CCCCO
Conditions | mass density, [2] [kg/m3] | refractive index, [1] | speed of sound, [2] [m/s]
298.15 K, x1 = 0.0425 | 843.506 ± 0.31 | 1.40525 ± 0.00038 | 1261.4 ± 1.3
298.15 K, x1 = 0.0922 | 882.293 ± 0.33 | 1.41307 ± 0.00039 | 1285.1 ± 1.4
298.15 K, x1 = 0.1929 | 948.953 ± 0.41 | 1.42652 ± 0.00042 | 1333.2 ± 1.5
298.15 K, x1 = 0.2926 | 1002.76 ± 0.55 | 1.43736 ± 0.00044 | 1379.5 ± 1.7
298.15 K, x1 = 0.3915 | 1047.2 ± 0.75 | 1.44629 ± 0.00047 | 1424.2 ± 1.9
298.15 K, x1 = 0.4981 | 1087.51 ± 1 | 1.45433 ± 0.00051 | 1471 ± 2.1
298.15 K, x1 = 0.5997 | 1120.12 ± 1.3 | 1.4608 ± 0.00054 | 1513.5 ± 2.3
298.15 K, x1 = 0.7996 | 1172.03 ± 2 | 1.47095 ± 0.0006 | 1589.4 ± 2.7
298.15 K, x1 = 1 | 1212.06 ± 2.8 | 1.47824 ± 0.00068 | 1654.6 ± 3.1
303.15 K, x1 = 0.0425 | 839.735 ± 0.31 | 1.40335 ± 0.00038 | 1245.6 ± 1.3
303.15 K, x1 = 0.0922 | 878.554 ± 0.33 | 1.41133 ± 0.00039 | 1270 ± 1.4
303.15 K, x1 = 0.1929 | 945.272 ± 0.41 | 1.42489 ± 0.00042 | 1318.8 ± 1.5
303.15 K, x1 = 0.2926 | 999.143 ± 0.54 | 1.43578 ± 0.00044 | 1365.8 ± 1.7
303.15 K, x1 = 0.3915 | 1043.64 ± 0.75 | 1.44477 ± 0.00047 | 1411 ± 1.9
303.15 K, x1 = 0.4981 | 1084.01 ± 1 | 1.45286 ± 0.00051 | 1458.1 ± 2.1
303.15 K, x1 = 0.5997 | 1116.66 ± 1.3 | 1.45937 ± 0.00054 | 1500.9 ± 2.3
303.15 K, x1 = 0.7996 | 1168.59 ± 2 | 1.46959 ± 0.0006 | 1577.1 ± 2.7
303.15 K, x1 = 1 | 1208.7 ± 2.8 | 1.47704 ± 0.00068 | 1642.2 ± 3.1
308.15 K, x1 = 0.0425 | 835.931 ± 0.31 | 1.40141 ± 0.00038 | 1229.6 ± 1.3
308.15 K, x1 = 0.0922 | 874.794 ± 0.32 | 1.40946 ± 0.00039 | 1254.6 ± 1.4
308.15 K, x1 = 0.1929 | 941.58 ± 0.41 | 1.42315 ± 0.00042 | 1304.3 ± 1.5
308.15 K, x1 = 0.2926 | 995.525 ± 0.54 | 1.43415 ± 0.00044 | 1351.8 ± 1.7
308.15 K, x1 = 0.3915 | 1040.09 ± 0.74 | 1.44321 ± 0.00047 | 1397.5 ± 1.9
308.15 K, x1 = 0.4981 | 1080.52 ± 1 | 1.45136 ± 0.00051 | 1445.1 ± 2.1
308.15 K, x1 = 0.5997 | 1113.21 ± 1.3 | 1.45792 ± 0.00054 | 1488.2 ± 2.3
308.15 K, x1 = 0.7996 | 1165.14 ± 2 | 1.46821 ± 0.0006 | 1564.7 ± 2.7
308.15 K, x1 = 1 | 1205.35 ± 2.8 | 1.47577 ± 0.00068 | 1630 ± 3.1
313.15 K, x1 = 0.0425 | 832.1 ± 0.31 | 1.39946 ± 0.00038 | 1213.7 ± 1.2
313.15 K, x1 = 0.0922 | 871.02 ± 0.33 | 1.40762 ± 0.00039 | 1239.3 ± 1.4
313.15 K, x1 = 0.1929 | 937.88 ± 0.41 | 1.42144 ± 0.00042 | 1289.8 ± 1.5
313.15 K, x1 = 0.2926 | 991.896 ± 0.54 | 1.43253 ± 0.00044 | 1338 ± 1.7
313.15 K, x1 = 0.3915 | 1036.54 ± 0.74 | 1.44166 ± 0.00047 | 1384.2 ± 1.9
313.15 K, x1 = 0.4981 | 1077.03 ± 1 | 1.44987 ± 0.00051 | 1432.3 ± 2.1
313.15 K, x1 = 0.5997 | 1109.78 ± 1.3 | 1.45646 ± 0.00054 | 1475.7 ± 2.3
313.15 K, x1 = 0.7996 | 1161.71 ± 2 | 1.46682 ± 0.0006 | 1552.6 ± 2.7
313.15 K, x1 = 1 | 1202.01 ± 2.8 | 1.47443 ± 0.00068 | 1617.9 ± 3.1

CCCCn1cc[n+](C)c1.COS(=O)(=O)[O-] [1-butyl-3-methylimidazolium methyl sulfate] + CO
Conditions | mass density, [2] [kg/m3] | refractive index, [1] | speed of sound, [2] [m/s]
298.15 K, x1 = 0.0422 | 871.193 ± 0.34 | 1.35708 ± 0.00031 | 1191.8 ± 0.66
298.15 K, x1 = 0.094 | 942.4 ± 0.23 | 1.38271 ± 0.00032 | 1273.9 ± 0.75
298.15 K, x1 = 0.1857 | 1027.84 ± 0.2 | 1.41321 ± 0.00034 | 1384.7 ± 0.94
298.15 K, x1 = 0.2858 | 1084.79 ± 0.28 | 1.43348 ± 0.00036 | 1464 ± 1.2
298.15 K, x1 = 0.3729 | 1118.3 ± 0.43 | 1.44537 ± 0.00039 | 1512.2 ± 1.4
298.15 K, x1 = 0.4772 | 1146.38 ± 0.67 | 1.45531 ± 0.00043 | 1553.5 ± 1.7
298.15 K, x1 = 0.5769 | 1166.12 ± 0.95 | 1.46226 ± 0.00047 | 1583.1 ± 1.9
298.15 K, x1 = 0.6775 | 1181.29 ± 1.3 | 1.46761 ± 0.00052 | 1606.1 ± 2.2
298.15 K, x1 = 0.7947 | 1194.94 ± 1.8 | 1.47248 ± 0.00057 | 1627 ± 2.5
298.15 K, x1 = 0.8923 | 1204.14 ± 2.3 | 1.47576 ± 0.00062 | 1641.7 ± 2.8
298.15 K, x1 = 0.9526 | 1208.98 ± 2.6 | 1.47744 ± 0.00065 | 1649.4 ± 3
298.15 K, x1 = 1 | 1212.06 ± 2.8 | 1.47824 ± 0.00068 | 1654.6 ± 3.1
303.15 K, x1 = 0.0422 | 866.765 ± 0.34 | 1.35523 ± 0.00031 | 1176.5 ± 0.65
303.15 K, x1 = 0.094 | 938.21 ± 0.23 | 1.38094 ± 0.00032 | 1259.6 ± 0.75
303.15 K, x1 = 0.1857 | 1023.91 ± 0.19 | 1.41156 ± 0.00034 | 1371.1 ± 0.94
303.15 K, x1 = 0.2858 | 1081.04 ± 0.28 | 1.43193 ± 0.00036 | 1450.9 ± 1.2
303.15 K, x1 = 0.3729 | 1114.64 ± 0.42 | 1.44388 ± 0.00039 | 1499.3 ± 1.4
303.15 K, x1 = 0.4772 | 1142.82 ± 0.66 | 1.45387 ± 0.00043 | 1540.9 ± 1.7
303.15 K, x1 = 0.5769 | 1162.61 ± 0.95 | 1.46087 ± 0.00047 | 1570.7 ± 1.9
303.15 K, x1 = 0.6775 | 1177.83 ± 1.3 | 1.46624 ± 0.00052 | 1593.8 ± 2.2
303.15 K, x1 = 0.7947 | 1191.5 ± 1.8 | 1.47111 ± 0.00057 | 1614.7 ± 2.5
303.15 K, x1 = 0.8923 | 1200.73 ± 2.2 | 1.4744 ± 0.00062 | 1629.5 ± 2.8
303.15 K, x1 = 0.9526 | 1205.6 ± 2.6 | 1.47608 ± 0.00065 | 1637.2 ± 3
303.15 K, x1 = 1 | 1208.7 ± 2.8 | 1.47704 ± 0.00068 | 1642.2 ± 3.1
308.15 K, x1 = 0.0422 | 862.332 ± 0.34 | 1.35331 ± 0.00031 | 1161.3 ± 0.65
308.15 K, x1 = 0.094 | 934.013 ± 0.23 | 1.37913 ± 0.00032 | 1245.1 ± 0.74
308.15 K, x1 = 0.1857 | 1019.99 ± 0.19 | 1.4099 ± 0.00034 | 1357.5 ± 0.94
308.15 K, x1 = 0.2858 | 1077.29 ± 0.28 | 1.43036 ± 0.00036 | 1437.7 ± 1.2
308.15 K, x1 = 0.3729 | 1111 ± 0.42 | 1.44239 ± 0.00039 | 1486.4 ± 1.4
308.15 K, x1 = 0.4772 | 1139.26 ± 0.66 | 1.45242 ± 0.00043 | 1528.2 ± 1.7
308.15 K, x1 = 0.5769 | 1159.12 ± 0.94 | 1.45945 ± 0.00047 | 1558.2 ± 1.9
308.15 K, x1 = 0.6775 | 1174.38 ± 1.3 | 1.46485 ± 0.00052 | 1581.4 ± 2.2
308.15 K, x1 = 0.7947 | 1188.07 ± 1.8 | 1.46972 ± 0.00057 | 1602.4 ± 2.5
308.15 K, x1 = 0.8923 | 1197.33 ± 2.2 | 1.47303 ± 0.00062 | 1617.2 ± 2.8
308.15 K, x1 = 0.9526 | 1202.23 ± 2.5 | 1.47475 ± 0.00065 | 1624.9 ± 3
308.15 K, x1 = 1 | 1205.35 ± 2.8 | 1.47577 ± 0.00068 | 1630 ± 3.1
313.15 K, x1 = 0.0422 | 857.888 ± 0.35 | 1.35141 ± 0.00031 | 1146.2 ± 0.65
313.15 K, x1 = 0.094 | 929.815 ± 0.24 | 1.37735 ± 0.00032 | 1230.8 ± 0.74
313.15 K, x1 = 0.1857 | 1016.06 ± 0.2 | 1.40827 ± 0.00034 | 1343.9 ± 0.94
313.15 K, x1 = 0.2858 | 1073.54 ± 0.28 | 1.4288 ± 0.00036 | 1424.6 ± 1.2
313.15 K, x1 = 0.3729 | 1107.37 ± 0.42 | 1.4409 ± 0.00039 | 1473.6 ± 1.4
313.15 K, x1 = 0.4772 | 1135.72 ± 0.65 | 1.45097 ± 0.00043 | 1515.7 ± 1.7
313.15 K, x1 = 0.5769 | 1155.64 ± 0.94 | 1.45804 ± 0.00047 | 1545.9 ± 1.9
313.15 K, x1 = 0.6775 | 1170.94 ± 1.3 | 1.46348 ± 0.00052 | 1569.2 ± 2.2
313.15 K, x1 = 0.7947 | 1184.65 ± 1.8 | 1.46836 ± 0.00057 | 1590.3 ± 2.5
313.15 K, x1 = 0.8923 | 1193.93 ± 2.2 | 1.47168 ± 0.00062 | 1605.1 ± 2.8
313.15 K, x1 = 0.9526 | 1198.87 ± 2.5 | 1.47338 ± 0.00065 | 1612.9 ± 3
313.15 K, x1 = 1 | 1202.01 ± 2.8 | 1.47443 ± 0.00068 | 1617.9 ± 3.1
